The text below walks through data of patent US10487068B2, “Pyridazine derivatives as RORc modulators” (Genentech, Inc., priority 2015, dated 2019).

The assay concerns the target T1, RORc ligand binding domain (Homo sapiens, UniProt P51449).
T1 sequence (P51449 269-508 limits assumed): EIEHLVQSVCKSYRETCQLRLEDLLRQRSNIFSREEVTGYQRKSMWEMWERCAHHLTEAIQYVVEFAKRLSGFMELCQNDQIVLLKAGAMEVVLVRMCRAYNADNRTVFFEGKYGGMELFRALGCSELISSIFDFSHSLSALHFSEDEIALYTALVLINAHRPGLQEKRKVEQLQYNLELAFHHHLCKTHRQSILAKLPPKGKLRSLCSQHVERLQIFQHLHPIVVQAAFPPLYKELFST
The assay can be described thus: In Vitro RORc Ligand Binding Assay. Particulars: RORc IC50, radioligand 25-[3H]hydroxycholesterol 6 nM; 0.6 ug/mL RORc receptor; 3 h at 25° C.

For orientation: IC50 means the concentration that gives 50% inhibition. In the case of `CC1(C)[C@H]2CC[C@]1(c1cccc(C(=O)NC(CO)CO)n1)c1nnc(-c3c(F)cccc3F)cc12` [Example 130, 6-((5R,8S)-3-(2,6-difluorophenyl)-9,9-dimethyl-5,6,7,8-tetrahydro-5,8-methanocinnolin-8-yl)-N-(1,3-dihydroxypropan-2-yl)picolinamide], the IC50 was determined as 55.3 nM.

Consider `CC1(C)[C@H]2CC[C@]1(c1cccc(C(=O)NCC3(O)COC3)n1)c1nnc(-c3c(F)cccc3F)cc12` [Example 131, 6-((5R,8S)-3-(2,6-difluorophenyl)-9,9-dimethyl-5,6,7,8-tetrahydro-5,8-methanocinnolin-8-yl)-N-((3-hydroxyoxetan-3-yl)methyl)picolinamide], for which the IC50 came out at 44.4 nM.

Compound `CC1(C)[C@H]2CC[C@]1(c1ccnc(NCC3(O)COC3)n1)c1nnc(-c3c(F)cccc3F)cc12` [Example 132] yielded an IC50 of 33.2 nM.

With `CC(=O)NCc1cncc([C@@]23CC[C@@H](c4cc(-c5c(F)cccc5F)nnc42)C3(C)C)n1` [Example 133, N-((6-((5R,8S)-3-(2,6-difluorophenyl)-9,9-dimethyl-5,6,7,8-tetrahydro-5,8-methanocinnolin-8-yl)pyrazin-2-yl)methyl)acetamide], the IC50 was 59.2 nM.

On to `CC1(C)[C@H]2CC[C@]1(c1cncc(CNS(C)(=O)=O)n1)c1nnc(-c3c(F)cccc3F)cc12` [Example 134, N-((6-((5R,8S)-3-(2,6-difluorophenyl)-9,9-dimethyl-5,6,7,8-tetrahydro-5,8-methanocinnolin-8-yl)pyrazin-2-yl)methyl)methanesulfonamide], for which the concentration for half-maximal inhibition (IC50) amounted to 18.8 nM.

Compound `CC1(C)[C@H]2CC[C@]1(c1cncc(-c3nc(CO)co3)n1)c1nnc(-c3c(F)cccc3F)cc12` [Example 135, (2-(6-((5R,8S)-3-(2,6-difluorophenyl)-9,9-dimethyl-5,6,7,8-tetrahydro-5,8-methanocinnolin-8-yl)pyrazin-2-yl)oxazol-4-yl)methanol] showed an IC50 of 23.3 nM.

The compound `CC(C)(O)CNC(=O)c1nccc([C@@]23CC[C@@H](c4cc(-c5c(F)cccc5F)nnc42)C3(C)C)n1` [Example 136] registered an IC50 of 37.1 nM.

Take `CC1(C)[C@H]2CC[C@]1(c1cccc(S(=O)(=O)N3CCOCC3)n1)c1nnc(-c3c(F)cccc3F)cc12` [Example 137, 4-((6-((5R,8S)-3-(2,6-difluorophenyl)-9,9-dimethyl-5,6,7,8-tetrahydro-5,8-methanocinnolin-8-yl)pyridin-2-yl)sulfonyl)morpholine]: the IC50 stood at 14.6 nM.

`Cc1nnc(-c2nccc([C@@]34CC[C@@H](c5cc(-c6c(F)cccc6F)nnc53)C4(C)C)n2)o1` [Example 138] showed an IC50 of 41.9 nM.

`CC1(C)[C@H]2CC[C@]1(c1cncc(C(=O)NCc3nnc[nH]3)n1)c1nnc(-c3c(F)cccc3F)cc12` [Example 139, N-((4H-1,2,4-triazol-3-yl)methyl)-6-((5R,8S)-3-(2,6-difluorophenyl)-9,9-dimethyl-5,6,7,8-tetrahydro-5,8-methanocinnolin-8-yl)pyrazine-2-carboxamide] returned an IC50 of 65.5 nM.

In the case of `CC1(C)[C@H]2CC[C@]1(c1cncc(C(=O)NC3(CO)CC3)n1)c1nnc(-c3c(F)cccc3F)cc12` [Example 140, 6-((5R,8S)-3-(2,6-difluorophenyl)-9,9-dimethyl-5,6,7,8-tetrahydro-5,8-methanocinnolin-8-yl)-N-(1-(hydroxymethyl)cyclopropyl)pyrazine-2-carboxamide], the IC50 came out at 44.4 nM.

Compound `CC1(C)[C@H]2CC[C@]1(c1cncc(C(=O)NCc3n[nH]c(=O)[nH]3)n1)c1nnc(-c3c(F)cccc3F)cc12` [Example 141, 6-((5R,8S)-3-(2,6-difluorophenyl)-9,9-dimethyl-5,6,7,8-tetrahydro-5,8-methanocinnolin-8-yl)-N-((5-oxo-4,5-dihydro-1H-1,2,4-triazol-3-yl)methyl)pyrazine-2-carboxamide] came in with an IC50 of 113 nM.

In turn, `CC1(C)[C@H]2CC[C@]1(c1cncc(-c3ocnc3CO)n1)c1nnc(-c3c(F)cccc3F)cc12` [Example 142, (5-(6-((5R,8S)-3-(2,6-difluorophenyl)-9,9-dimethyl-5,6,7,8-tetrahydro-5,8-methanocinnolin-8-yl)pyrazin-2-yl)oxazol-4-yl)methanol] registered an IC50 of 17.2 nM.

In the case of `CNS(=O)(=O)c1cccc([C@@]23CC[C@@H](c4cc(-c5c(F)cccc5F)nnc42)C3(C)C)n1` [Example 143, 6-((5R,8S)-3-(2,6-difluorophenyl)-9,9-dimethyl-5,6,7,8-tetrahydro-5,8-methanocinnolin-8-yl)-N-methylpyridine-2-sulfonamide], the IC50 turned out to be 5.9 nM.

As for `CC1(C)[C@H]2CC[C@]1(c1cccc(-c3nnc(CO)o3)n1)c1nnc(-c3c(F)cccc3F)cc12` [Example 144, (5-(6-((5R,8S)-3-(2,6-difluorophenyl)-9,9-dimethyl-5,6,7,8-tetrahydro-5,8-methanocinnolin-8-yl)pyridin-2-yl)-1,3,4-oxadiazol-2-yl)methanol], the IC50 stood at 11.6 nM.

`CC1(C)[C@H]2CC[C@]1(c1cncc(-c3ncnn3CCO)n1)c1nnc(-c3c(F)cccc3F)cc12` [Example 145, 2-(5-(6-((5R,8S)-3-(2,6-difluorophenyl)-9,9-dimethyl-5,6,7,8-tetrahydro-5,8-methanocinnolin-8-yl)pyrazin-2-yl)-1H-1,2,4-triazol-1-yl)ethanol] showed an IC50 of 43.5 nM.

Turning to `CC1(C)[C@H]2CC[C@]1(c1cncc(-c3nnn[nH]3)n1)c1nnc(-c3c(F)cccc3F)cc12` [Example 146], the IC50 is 31.9 nM.

The compound `CC1(C)[C@H]2CC[C@]1(c1cncc(C(=O)NC3(CO)COC3)n1)c1nnc(-c3c(F)cccc3F)cc12` [Example 147, 6-((5R,8S)-3-(2,6-difluorophenyl)-9,9-dimethyl-5,6,7,8-tetrahydro-5,8-methanocinnolin-8-yl)-N-(3-(hydroxymethyl)oxetan-3-yl)pyrazine-2-carboxamide] yielded an IC50 of 50.6 nM.

`CC1(C)[C@H]2CC[C@]1(c1cncc(-c3n[nH]c(=O)o3)n1)c1nnc(-c3c(F)cccc3F)cc12` [Example 148, 5-(6-((5R,8S)-3-(2,6-difluorophenyl)-9,9-dimethyl-5,6,7,8-tetrahydro-5,8-methanocinnolin-8-yl)pyrazin-2-yl)-1,3,4-oxadiazol-2(3H)-one] gave an IC50 of 21 nM.

Consider `Cc1nnc(-c2cccc([C@@]34CC[C@@H](c5cc(-c6c(F)cccc6F)nnc53)C4(C)C)n2)[nH]1` [Example 149], for which the IC50 came to 24 nM.

With `CC1(C)[C@H]2CC[C@]1(c1cccc(-c3nnc(CO)[nH]3)n1)c1nnc(-c3c(F)cccc3F)cc12` [Example 150, (5-(6-((5R,8S)-3-(2,6-difluorophenyl)-9,9-dimethyl-5,6,7,8-tetrahydro-5,8-methanocinnolin-8-yl)pyridin-2-yl)-4H-1,2,4-triazol-3-yl)methanol], the IC50 is 22.3 nM.

Take `CC1(C)[C@H]2CC[C@]1(c1ccnc(-n3cnnc3)n1)c1nnc(-c3c(F)cccc3F)cc12` [Example 151]: the IC50 was 13.6 nM.

In turn, `CC1(C)[C@H]2CC[C@]1(c1ccnc(N3C[C@H](O)[C@@H](O)C3)n1)c1nnc(-c3c(F)cccc3F)cc12` [Example 152] returned an IC50 of 174 nM.

`CC1(C)[C@H]2CC[C@]1(c1ccnc(NC[C@H](O)CO)n1)c1nnc(-c3c(F)cccc3F)cc12` [Example 153] had an IC50 of 15.7 nM.

In turn, `CC1(C)[C@H]2CC[C@]1(c1ccnc(NC[C@@H](O)CO)n1)c1nnc(-c3c(F)cccc3F)cc12` [Example 154] had an IC50 of 42.1 nM.
